Experimental data reported in publication PMC6747087, “Characterization of Tachyplesin Peptides and Their Cyclized Analogues to Improve Antimicrobial and Anticancer Properties” (International Journal of Molecular Sciences, 2019).
Where two headings read alike, the source gives them in different places. Residues, ends and D or L forms follow the SMILES beside them.

Tests used:
[1] = in vitro; settings: human, 25% (v/v) human serum
Method: The serum stability assay was carried out as previously described with some modifications. Briefly, tachyplesin variants were incubated in 25% (v/v) human serum diluted in phosphate-buffered saline (PBS) at a final concentration of 50 µM at 37 °C. Triplicates were collected at time 0 h and 24 h and the serum proteins were precipitated with acetonitrile (1:3 ratio) supplemented with 3% TFA. Samples were kept on ice for 10 min before centrifugation at 17,000× g for 10 min at 4 °C. The peptide containing supernatant of each sample was harvested and quantified using RP-HPLC (10 to 45% solvent B, 1%/min gradient). The percentage of peptide stability in human serum was calculated by comparing the area of the peptide peak obtained at 24 h to that at time 0 h. A linear peptide containing 18 amino acid residues ([…]) was included as a control susceptible to proteolytic degradation.

[2] = Hemolytic activity against human red blood cells; assay type: cell-based; settings: at 64 µM peptide, human RBCs, read-out: RBCs lysed (hemolysis)
Method: (§1) A small amount of blood was collected from three healthy human donors. The blood was immediately diluted in PBS and centrifuged 4–5 times for 1 min at 4000 rpm to wash and separate the human red blood cells (RBCs). RBCs suspension (0.25% (v/v) in PBS) was incubated with peptides with two-fold serial dilutions of the peptide (highest concentration tested was 128 µM, and the lowest was 0.25 µM) in a 96-well plate. Melittin, a membrane disruptive peptide, was used as control. The plates were incubated for 1 h at 37 °C. After incubation, the plates were centrifuged for 5 min at 1000 rpm to pellet any non-lysed RBCs. A total of 100 µL of the supernatant were transferred to a new 96-well plate. The hemoglobin released into the supernatant from lysed cells was measured by absorbance at 415 nm using the Tecan infinite M1000Pro multiplate reader (Männedorf, Switzerland).

[3] = tested on: human red blood cells (RBCs); experiment: Hemolytic activity against human red blood cells; assay type: cell-based; settings: human RBCs 0.25% (v/v), 1 h, 37 °C; mean ± SEM
Method: as §1

[4] = tested on: E. coli ATCC 25922; experiment: MIC against planktonic bacteria (resazurin); assay type: cell-based, Escherichia coli; settings: Mueller Hinton Broth
Method: (§2) S. aureus ATCC 25923, S. aureus ATCC 6538, E. coli ATCC 25922, and E. coli DC2 CGSC 7139 were grown in Mueller Hinton Broth (Sigma Aldrich, St. Luis, USA). Bacterial cultures in the exponential growth phase were diluted to an OD600nm of 0.001 and seeded into 96-well plates. Peptides at different concentrations, starting at 64 µM and with two-fold serial dilutions (i.e., 64, 32, 16, 8, 4, 2, 1, 0.5, 0.25, 0.125 and 0.0625 µM), were incubated with cells; 0.05% (v/v) resazurin was added to the cultures the next day and the conversion to resorufin was measured after 1 h of incubation at 37 °C using a 565 nm excitation and 584 nm emission wavelength, as above.

[5] = tested on: E. coli DC2 CGSC 7139; experiment: MIC against planktonic bacteria (resazurin); assay type: cell-based, Escherichia coli; settings: Mueller Hinton Broth
Method: as §2

[6] = tested on: S. aureus ATCC 25923; experiment: MIC against planktonic bacteria (resazurin); assay type: cell-based, Staphylococcus aureus; settings: Mueller Hinton Broth
Method: as §2

[7] = tested on: S. aureus ATCC 6538; experiment: MIC against planktonic bacteria (resazurin); assay type: cell-based, Staphylococcus aureus; settings: Mueller Hinton Broth
Method: as §2

[8] = Activity against preformed biofilm (resazurin metabolic activity); assay type: cell-based, Staphylococcus aureus; settings: 24 h preformed biofilm, 4 h peptide treatment, read-out: CC50 (reduction of 50% of the metabolically active cell population)
Method: (§3) S. aureus ATCC 6538 (1 × 10^6 cfu/mL) was cultured in Tryptic Soy Broth, containing 0.25% (w/v) glucose and incubated in 96-well microtiter flat-bottomed polystyrene plates for 24 h at 37 °C. Preformed biofilms were then washed with Mueller Hinton Broth to remove non-adherent cells. Two-fold serial dilutions of each peptide (highest concentration tested was 32 µM and lowest was 0.25 µM) were added to the biofilms for 4 h. Untreated 24 h preformed biofilms were used as a control. The metabolic activity of biofilm-embedded cells was determined using a resazurin reduction fluorometric assay as previously described.

[9] = Cytotoxicity assay (resazurin); assay type: cell-based, Human; settings: ± SEM, n ≥ 3; for CC50 at 2 h: human
Method: Cells were grown in cell culture flasks and incubated in a humidified atmosphere (5% CO2, 37 °C). The cancer cell lines HeLa and the control cell line HaCaT were grown in a DMEM medium supplemented with 1% (v/v) penicillin/streptomycin and 10% (v/v) fetal bovine serum (FBS). The cancer cell lines MM96L, HT144 and WM164 were grown in a RPMI medium supplemented with 1% (v/v) penicillin/[…], 10% (v/v) FBS, 20 mM L-glutamine, and 10 mM sodium pyruvate. Cell cultures were maintained by dilution upon reaching confluence, each 48–72 h. More information about the cell lines is available in Tables S2 and S3.
(§4) Cells were seeded into 96-well flat-bottom plates at 5 × 10^3 cells/well and incubated overnight. The medium was removed and replaced with 90 µL serum-free medium, 10 µL of 10x concentrated peptide solutions in PBS were added. PBS was added as blank and 0.1% (v/v) Triton X-100 was used to establish 100% of cell death. After 2 h incubation at 37 °C, 10 µL of filtered 0.05% (w/v) resazurin solution was added to each well [70]. Resazurin is converted to the pink and fluorescent compound resorufin by viable cells. After incubation overnight, the fluorescence intensity (λex = 565 nm and λem = 584 nm) was measured with the Tecan infinite M1000Pro multiplate reader (Männedorf, Switzerland).

[10] = human serum, 2 h; cited from earlier work
[11] = mouse serum, 2 h; cited from earlier work
[12] = tested on: S. aureus ATCC 6538 biofilm; experiment: Activity against preformed biofilm (resazurin metabolic activity); assay type: cell-based, Staphylococcus aureus; settings: cells remaining metabolically active at 32 µM, the highest concentration tested
Method: as §3

[13] = tested on: melanoma cell lines MM96L, HT144 and WM164; experiment: Cytotoxicity and selectivity (activity-toxicity index) for melanoma cell lines; assay type: cell-based; settings: MHC inducing 10% (lower value) or 50% (higher value) cell death in human RBCs over median CC50 of melanoma lines
Method: as §4
The selectivity was calculated through the activity-toxicity index (ATI). ATI = MHC/MCC50, with MHC being the minimal concentration necessary to induce 10% or 50% cell death in human red blood cells and MCC50 the median of cytotoxic concentrations (CC50) of all tested melanoma cell lines.

[14] = tested on: Pseudomonas aeruginosa biofilm; parameters: method as in PMID 18022289; settings: rat model of ureteral stent infection; cited from earlier work
[15] = HT144, 2 h peptide in serum-free medium
[16] = WM164, 2 h peptide in serum-free medium

[H][C@]12CSSC[C@]([H])(NC(=O)[C@]([H])([C@@H](C)CC)NC(=O)CNC(=O)[C@H](CCCNC(=N)N)NC(=O)[C@H](Cc3ccc(O)cc3)NC1=O)C(=O)N[C@@H](Cc1ccc(O)cc1)C(=O)N[C@@H](CCCNC(=N)N)C(=O)N[C@@H](CCCNC(=N)N)C(=O)N[C@H](C(=O)N[C@@H](CCCNC(=N)N)C(N)=O)CSSC[C@H](NC(=O)[C@H](Cc1c[nH]c3ccccc13)NC(=O)[C@@H](N)CCCCN)C(=O)N[C@@H](Cc1ccccc1)C(=O)N[C@@H](CCCNC(=N)N)C(=O)N[C@@H](C(C)C)C(=O)N2 [TI, Tachyplesin I] (HELM PEPTIDE1{K.W.C.F.R.V.C.Y.R.G.I.C.Y.R.R.C.R.[am]}$PEPTIDE1,PEPTIDE1,3:R3-16:R3|PEPTIDE1,PEPTIDE1,7:R3-12:R3$$$V2.0)
remaining at 24 h, 50 µM [1]: 25% | hemolysis [2]: 66% | HC50 (concentration required to induce 50% lysis in RBCs) [3]: 34.9 ± 2.8 µM | MIC [4]: 0.0625 to 0.5 µM | MIC [5]: 0.5 to 1 µM | MIC [6]: 1 to 4 µM | MIC [7]: 4 to 8 µM | Concentration reducing biofilm metabolic activity by 50% [8]: 21.5 ± 2.2 µM | CC50 [9, 15]: 1700 ± 200 nM | CC50 ([9]; HaCaT non-cancerous control, 2 h peptide in serum-free medium): 11600 ± 1600 nM | CC50 ([9]; HeLa, 2 h peptide in serum-free medium): 13100 ± 1200 nM | CC50 ([9]; MM96L, 2 h peptide in serum-free medium): 1500 ± 100 nM | CC50 [9, 16]: 2500 ± 100 nM | stability in serum [10]: completely stable | stability in serum [11]: completely stable

CC[C@H](C)[C@@H]1NC(=O)CNC(=O)[C@H](CCCNC(=N)N)NC(=O)[C@H](Cc2ccc(O)cc2)NC(=O)[C@@H]2CSSC[C@H](NC1=O)C(=O)N[C@@H](Cc1ccc(O)cc1)C(=O)N[C@@H](CCCNC(=N)N)C(=O)N[C@@H](CCCCN)C(=O)N[C@H](C(=O)N[C@@H](CCCNC(=N)N)C(N)=O)CSSC[C@H](NC(=O)[C@H](Cc1c[nH]c3ccccc13)NC(=O)[C@@H](N)CCCCN)C(=O)N[C@@H](Cc1ccccc1)C(=O)N[C@@H](CCCNC(=N)N)C(=O)N[C@@H](C(C)C)C(=O)N2 [TIII, Tachyplesin III] (HELM PEPTIDE1{K.W.C.F.R.V.C.Y.R.G.I.C.Y.R.K.C.R.[am]}$PEPTIDE1,PEPTIDE1,3:R3-16:R3|PEPTIDE1,PEPTIDE1,7:R3-12:R3$$$V2.0; N-terminus assumed)
hemolysis at 1 h ([2]; red blood cells in PBS): 41% | HC50 (concentration required to induce 50% lysis in RBCs) [3]: 86.4 ± 12.2 µM | MIC [4]: 0.0625 to 0.5 µM | MIC [5]: 0.25 to 0.5 µM | MIC [6]: 1 to 4 µM | MIC [7]: 4 to 8 µM | Concentration reducing biofilm metabolic activity by 50% at 4 h ([8]; Staphylococcus aureus, preformed S. aureus biofilm): 24.2 ± 4.1 µM | Metabolically Active Cells [12]: 43.3 ± 4.1% | CC50 at 2 h ([9]; HaCaT keratinocyte cells, HaCaT non-cancerous control, 2 h peptide in serum-free medium): 7300 ± 500 nM | CC50 at 2 h ([9]; HeLa cervical cancer cells, 2 h peptide in serum-free medium): 21700 ± 1100 nM | CC50 at 2 h ([9]; MM96L melanoma cells, 2 h peptide in serum-free medium): 1800 ± 100 nM | CC50 at 2 h [9, 15]: 2000 ± 100 nM | CC50 at 2 h [9, 16]: 1700 ± 100 nM | Melanoma Selectivity (activity-toxicity index, ATI = MHC/MCC50) [13]: 5–48 | prevention of biofilm formation [14]: prevent the formation of a Pseudomonas aeruginosa biofilm
